Reference: the supplement of paper PMC10307832

Experiments:
Test in all cases: relative viability (nuclei count vs DMSO), 5 days (fraction); higher = more cells survive
VX-702 + Pictilisib = compound: NC(=O)c1ccc(N(C(N)=O)c2c(F)cccc2F)nc1-c1ccc(F)cc1F [VX-702] + CS(=O)(=O)N1CCN(Cc2cc3nc(-c4cccc5[nH]ncc45)nc(N4CCOCC4)c3s2)CC1 [Pictilisib] (partner 1 µM)
Method in brief: (§1)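 After 5 days of treatment, lung cancer cells in 1536-well plates were fixed and stained in a single step (final 0.05% Triton X-100, 1% formaldehyde, 1 ug/ml Hoechst) and their nuclei counted on 4× images. Treatment had been applied by pin tool the day after seeding as one drug alone or as a fixed anchor-drug dose with five library-drug doses (not always all listed) in √10 steps. Relative viability is the nuclei count of treated wells divided by that of vehicle wells, and values are medians of duplicate plates.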

Dabrafenib + Pemetrexed = compound: CC(C)(C)c1nc(-c2cccc(NS(=O)(=O)c3c(F)cccc3F)c2F)c(-c2ccnc(N)n2)s1 [Dabrafenib] + Nc1nc2[nH]cc(CCc3ccc(C(=O)N[C@@H](CCC(=O)O)C(=O)O)cc3)c2c(=O)[nH]1 [Pemetrexed] (partner 0.2 µM)
Method in brief: as §1

Dabrafenib + Olaparib = compound: CC(C)(C)c1nc(-c2cccc(NS(=O)(=O)c3c(F)cccc3F)c2F)c(-c2ccnc(N)n2)s1 [Dabrafenib] + O=C(c1cc(Cc2n[nH]c(=O)c3ccccc23)ccc1F)N1CCN(C(=O)C2CC2)CC1 [Olaparib] (partner 8 µM)
Method in brief: as §1

VX-702 + Vorinostat = compound: NC(=O)c1ccc(N(C(N)=O)c2c(F)cccc2F)nc1-c1ccc(F)cc1F [VX-702] + O=C(CCCCCCC(=O)Nc1ccccc1)NO [Vorinostat] (partner 1 µM)
Method in brief: as §1

Cell Line | relative viability (VX-702 + Pictilisib; first compound 0.02 µM) | relative viability (VX-702 + Pictilisib; first compound 0.2 µM) | relative viability (VX-702 + Pictilisib; first compound 0.6325 µM) | relative viability (VX-702 + Pictilisib; first compound 2 µM) | relative viability (Dabrafenib + Pemetrexed; first compound 0.009487 µM) | relative viability (Dabrafenib + Pemetrexed; first compound 0.03 µM) | relative viability (Dabrafenib + Pemetrexed; first compound 0.09487 µM) | relative viability (Dabrafenib + Pemetrexed; first compound 0.3 µM) | relative viability (Dabrafenib + Olaparib; first compound 0.009487 µM) | relative viability (Dabrafenib + Olaparib; first compound 0.03 µM) | relative viability (Dabrafenib + Olaparib; first compound 0.09487 µM) | relative viability (Dabrafenib + Olaparib; first compound 0.3 µM) | relative viability (VX-702 + Vorinostat; first compound 0.02 µM) | relative viability (VX-702 + Vorinostat; first compound 0.2 µM) | relative viability (VX-702 + Vorinostat; first compound 0.6325 µM) | relative viability (VX-702 + Vorinostat; first compound 2 µM) | relative viability (Dabrafenib + Pemetrexed; first compound 0.003 µM) | relative viability (Dabrafenib + Olaparib; first compound 0.003 µM)
PC-3 [JPC-3] | 0.806 | 0.737 | 0.884 | 0.388 | 1.24 | 1.12 | 1.05 | 1.14 | 1.24 | 1.18 | 1.07 | 1.24 | 0.929 | 0.773 | 0.908 | 0.886 |  | 
NCI-H2228 | 0.364 | 0.431 | 0.343 | 0.507 | 0.415 | 0.357 | 0.332 | 0.321 | 0.464 | 0.615 | 0.439 | 0.693 | 0.536 | 0.631 | 0.467 | 0.896 | 0.342 | 0.757
HOP-62 | 0.852 | 0.652 | 0.597 | 0.683 | 0.255 | 0.286 | 0.273 | 0.25 | 0.297 | 0.388 |  | 0.386 | 0.869 | 0.697 | 0.744 | 0.817 | 0.253 | 
H3255 | 0.553 | 0.48 | 0.462 | 0.479 | 0.593 | 0.607 | 0.511 | 0.643 | 0.568 | 0.626 | 0.573 | 0.595 | 0.757 |  | 0.598 | 0.866 | 0.564 | 0.632
